Reference: patent US4178436A, “Semi-synthetic oleandomycin derivatives-C8 modifications” (Pfizer Inc., priority 1978, dated 1979)
In brackets after ≈: the same amount, converted by molar mass.

What was measured:
Staph. aureus 01A005 = assay: protection against in vivo infection in mice infected with Staph. aureus 01A005 (test procedure of Retsema); conditions: subcutaneous or oral administration to mice infected with Staph. aureus 01A005; compared with natural oleandomycin
Procedure: The ability of some compounds of the present invention to protect against in vivo infections was determined by subcutaneous or oral administration to mice infected with Staph. aureus 01A005. Using the test procedure of Retsema [J. A. Retsema, et al., Antimicr.

Staph.aureus 01A400R = assay: in vitro minimum inhibitory concentration (MIC) method of Ericsson and Sherris; type: cell-based; conditions: Staphylococcus aureus, Gram-positive
Source text: (§1) The oleandomycin compounds of the present invention are effective in inhibiting the growth of microorganisms, especially Gram-positive microorganisms. That is, the high activity against Gram-positive organisms in general shown by these compounds can be contrasted in some respects with the lower activity show against certain especially virulent and well known Gram-negative organisms. The following table illustrates the in vitro antibiotic spectrum of the compound of the instant invention. The tests were run according to the "minimum inhibitory concentration" (MIC) method of Ericsson and Sherris [H. M. Ericsson and J. C. Sherris, Acta. Pathol. Microbiol. Scand. Suppl., 217B, 64 (1971)].

Klebsiella pn. 53A009 = assay: as above; type: cell-based; conditions: Klebsiella pn. 53A009, Gram-negative
Source text: as §1

Strep.py 02C203 = assay: as above; type: cell-based; conditions: Strep.py 02C203, Gram-positive
Source text: as §1

E.coli 51A226 = assay: as above; type: cell-based; conditions: Escherichia coli; E.coli 51A226, Gram-negative
Source text: as §1

Staph.aureus 01A005 = assay: as above; type: cell-based; conditions: Staphylococcus aureus; Staph.aureus 01A005, Gram-positive
Source text: as §1

Salm.typhm. 58D009 = assay: as above; type: cell-based; conditions: Salm.typhm. 58D009, Gram-negative
Source text: as §1

Neisseriae Sicca 66C001 = assay: as above; type: cell-based; conditions: Neisseriae Sicca 66C001, Gram-negative
Source text: as §1

SMILES	MIC (Staph.aureus 01A400R)	MIC (Klebsiella pn. 53A009)	MIC (Strep.py 02C203)	MIC (E.coli 51A226)	MIC (Staph.aureus 01A005)	MIC (Salm.typhm. 58D009)	MIC (Neisseriae Sicca 66C001)	protection against infection (Staph. aureus 01A005)
CO[C@H]1C[C@H](O[C@H]2[C@H](C)[C@@H](O[C@@H]3O[C@H](C)C[C@H](N(C)C)[C@H]3OC(C)=O)[C@@H](C)C[C@@H](COS(=O)(=O)c3ccc(C)cc3)C(=O)[C@H](C)[C@@H](O)[C@@H](C)[C@@H](C)OC(=O)[C@@H]2C)O[C@@H](C)[C@@H]1O [Example 5, 8,8a-Deoxy-8-tosyloxymethyl-2'-acetyloleandomycin]	> 200 µg/mL	> 200 µg/mL	3.12 µg/mL (≈ 3.52 µM)	> 200 µg/mL	100 µg/mL (≈ 113 µM)	> 200 µg/mL	3.12 µg/mL (≈ 3.52 µM)	
CO[C@H]1C[C@H](O[C@H]2[C@H](C)[C@@H](O[C@@H]3O[C@H](C)C[C@H](N(C)C)[C@H]3O)[C@@H](C)C[C@@H](CN(C)C)C(=O)[C@H](C)[C@@H](O)[C@@H](C)[C@@H](C)OC(=O)[C@@H]2C)O[C@@H](C)[C@@H]1OC(C)=O [Example 14, 8,8a-Deoxy-8-dimethylaminomethyl-4"-acetyloleandomycin]	50 µg/mL (≈ 65.9 µM)	> 200 µg/mL	50 µg/mL (≈ 65.9 µM)	> 200 µg/mL	25 µg/mL (≈ 32.9 µM)	> 200 µg/mL	1.56 µg/mL (≈ 2.06 µM)	
CO[C@H]1C[C@H](O[C@H]2[C@H](C)[C@@H](O[C@@H]3O[C@H](C)C[C@H](N(C)C)[C@H]3O)[C@@H](C)C[C@@H](CNC(C)=O)C(=O)[C@H](C)[C@@H](O)[C@@H](C)[C@@H](C)OC(=O)[C@@H]2C)O[C@@H](C)[C@@H]1OC(C)=O [Example 19, 8,8a-Deoxy-8-(N-acetyl)aminomethyl-4"-acetyloleandomycin]								protection against infection which was comparable to natural oleandomycin

Now from value to compound, other results behind:

MIC (Staph.aureus 01A400R)	MIC (Klebsiella pn. 53A009)	MIC (Strep.py 02C203)	MIC (E.coli 51A226)	MIC (Staph.aureus 01A005)	MIC (Salm.typhm. 58D009)	MIC (Neisseriae Sicca 66C001)	SMILES	protection against infection (Staph. aureus 01A005)
12.5 µg/mL (≈ 17.1 µM)	> 200 µg/mL	1.56 µg/mL (≈ 2.13 µM)	> 200 µg/mL	6.25 µg/mL (≈ 8.54 µM)	> 200 µg/mL	0.39 µg/mL (≈ 0.533 µM)	CO[C@H]1C[C@H](O[C@H]2[C@H](C)[C@@H](O[C@@H]3O[C@H](C)C[C@H](N(C)C)[C@H]3OC(C)=O)[C@@H](C)C[C@@H](CO)C(=O)[C@H](C)[C@@H](O)[C@@H](C)[C@@H](C)OC(=O)[C@@H]2C)O[C@@H](C)[C@@H]1O [Example 2, 8,8a-Deoxy-8-hydroxymethyl-2'-acetyloleandomycin]	protection against infection which was comparable to natural oleandomycin
12.5 µg/mL (≈ 16.5 µM)	> 200 µg/mL	3.1 µg/mL (≈ 4.1 µM)	> 200 µg/mL	3.1 µg/mL (≈ 4.1 µM)	> 200 µg/mL	0.2 µg/mL (≈ 0.264 µM)	CO[C@H]1C[C@H](O[C@H]2[C@H](C)[C@@H](O[C@@H]3O[C@H](C)C[C@H](N(C)C)[C@H]3O)[C@@H](C)C[C@@H](CN=[N+]=[N-])C(=O)[C@H](C)[C@@H](O)[C@@H](C)[C@@H](C)OC(=O)[C@@H]2C)O[C@@H](C)[C@@H]1OC(C)=O [Example 9, 8,8a-Deoxy8-azidomethyl-4"-acetyloleandomycin]	protection against infection which was comparable to natural oleandomycin
25 µg/mL (≈ 34.2 µM)	> 200 µg/mL	50 µg/mL (≈ 68.4 µM)	> 200 µg/mL	6.25 µg/mL (≈ 8.55 µM)	> 200 µg/mL	≤ 0.1 µg/mL	CO[C@H]1C[C@H](O[C@H]2[C@H](C)[C@@H](O[C@@H]3O[C@H](C)C[C@H](N(C)C)[C@H]3O)[C@@H](C)C[C@@H](CN)C(=O)[C@H](C)[C@@H](O)[C@@H](C)[C@@H](C)OC(=O)[C@@H]2C)O[C@@H](C)[C@@H]1OC(C)=O [Example 11, 8,8a-Deoxy-8-aminomethyl-4"-acetyloleandomycin]	
50 µg/mL (≈ 66.6 µM)	> 200 µg/mL	1.56 µg/mL (≈ 2.08 µM)	200 µg/mL (≈ 267 µM)	3.12 µg/mL (≈ 4.16 µM)	> 200 µg/mL	≤ 0.1 µg/mL	CO[C@H]1C[C@H](O[C@H]2[C@H](C)[C@@H](O[C@@H]3O[C@H](C)C[C@H](N(C)C)[C@H]3O)[C@@H](C)C[C@@H](CCl)C(=O)[C@H](C)[C@@H](O)[C@@H](C)[C@@H](C)OC(=O)[C@@H]2C)O[C@@H](C)[C@@H]1OC(C)=O [Example 13, 8,8a-Deoxy-8-chloromethyl-4'-acetyloleandomycin]	protection against infection which was comparable to natural oleandomycin
6.25 µg/mL (≈ 7.99 µM)	> 200 µg/mL		> 200 µg/mL	0.39 µg/mL (≈ 0.499 µM)	> 200 µg/mL	≤ 0.1 µg/mL	CO[C@H]1C[C@H](O[C@H]2[C@H](C)[C@@H](O[C@@H]3O[C@H](C)C[C@H](N(C)C)[C@H]3O)[C@@H](C)C[C@@H](Cn3ccnc3)C(=O)[C@H](C)[C@@H](O)[C@@H](C)[C@@H](C)OC(=O)[C@@H]2C)O[C@@H](C)[C@@H]1OC(C)=O [Example 24, 8,8a-deoxy-8-(imidazol-1-yl)methyl-4"-acetyloleandomycin]	protection against infection which was comparable to natural oleandomycin
